Data from patent US20260000782A1, “ITGB2-MEDIATED DRUG DELIVERY SYSTEM” (TWINPIG BIOLAB INC., priority 2022, published 2026).

Legend:
[1] = test system: M2 macrophages; assay: CCK-8 cell viability in M2 macrophages (control, ITGB2 knockdown, ITGB2 antibody pretreatment); format: cell-based, human; conditions: Melittin-dKLA 1 μM, 24 hours
Description: As a cell model used to confirm whether apoptosis was induced through ITGB2 in M2 macrophages, a cell model in which the expression of ITGB2 was suppressed in M2 macrophages was fabricated using Crispr/cas9. Specifically, cells differentiated into M2 macrophages were cultured in an Opti-MEM medium. The Crispr/cas9 was mixed with Cas9 protein V2 (Thermo Fisher scientific) and gRNA (Genscript; ITGB2; Table 7) of a CRISPRMAX™ Reagent kit (Thermo Fisher scientific) and a Cas9 Plus™ Reagent (Thermo Fisher scientific), and a CRISPRMAX™ Reagent was diluted in the Opti-MEM medium, mixed together, and reacted for 5 to 10 minutes, and then added to cells differentiated into M2 macrophages and cultured at 37° C. for 2 to 3 days. Thereafter, the mRNA expression level of ITGB2 was confirmed.
To confirm whether Melittin-dKLA bound to ITGB2 to induce apoptosis in M2 macrophages, Melittin-dKLA (1 μM) was treated for 24 hours to M2 macrophages in which ITGB2 expression was suppressed by Crispr/cas9 fabricated in Example 7-1 above, and cell viability was analyzed using a CCK-8 assay. Specifically, Melittin-dKLA (1 μM) reacted with ITGB2 knockdown macrophages fabricated in Example 7-1 above for 1 hour. After the reaction, the medium was replaced and cultured at 37° C. for 24 hours. […] Absorbance was measured at 450 nm using a microplate reader (Molecular Devices). […]

[2] = test system: M2 macrophages; assay: Flow cytometry of FITC-conjugated melittin on M0, M1 and M2 macrophages; format: cell-based, human; conditions: 50 nM FITC-conjugated melittin, 1 hour; THP-1 derived M0, M1, M2 macrophages
Description: To confirm whether the melittin fabricated in Example 1 specifically bound to M2 tumor-associated macrophages (M2 TAMs), a human monocyte cell line THP-1 was differentiated into M0, M1, and M2 macrophages, and treated with FITC-conjugated melittin, and then confirmed by flow cytometry. Specifically, THP-1 cells were treated with 100 nM phorbol 12-myristate 13-acetate (PMA) at 37° C. for 24 hours (M0 macrophages), and the differentiated M0 macrophages were incubated with 100 nM LPS and 20 ng/ml IFN-γ at 37° C. for 72 hours to be differentiated into M1 macrophages (M1), and incubated with 20 ng/ml IL-4 and IL-13 at 37° C. for 72 hours to be differentiated into M2 macrophages (M2). The differentiated cells were treated with 50 nM FITC-conjugated melittin for 1 hour, detected with BD FACS CantoII instruments (BD biosciences, San Jose, CA, USA), and analyzed with FlowJo software (BD biosciences).

Row | Compound | cell viability ([1]; M2 macrophages in which ITGB2 was knocked down (Crispr/cas9)) | cell viability ([1]; control M2 macrophages) | FITC-positive cells [2]
1 | Peptide with linker and drug dKLA attached to melittin, SEQ ID NO: 5, GIGAVLKVLTTGLPALISWIKRKRQQ-GGGGS-d[KLAKLAKKLAKLAK] [Melittin-dKLA] | decrease in cell viability by Melittin-dKLA was suppressed | significantly reduced | 
2 | CC[C@H](C)[C@H](NC(=O)CN)C(=O)NCC(=O)N[C@@H](C)C(=O)N[C@H](C(=O)N[C@@H](CC(C)C)C(=O)N[C@@H](CCCCN)C(=O)N[C@H](C(=O)N[C@@H](CC(C)C)C(=O)N[C@H](C(=O)N[C@H](C(=O)NCC(=O)N[C@@H](CC(C)C)C(=O)N1CCC[C@H]1C(=O)N[C@@H](C)C(=O)N[C@@H](CC(C)C)C(=O)N[C@H](C(=O)N[C@@H](CO)C(=O)N[C@@H](Cc1c[nH]c2ccccc12)C(=O)N[C@H](C(=O)N[C@@H](CCCCN)C(=O)N[C@@H](CCCNC(=N)N)C(=O)N[C@@H](CCCCN)C(=O)N[C@@H](CCCNC(=N)N)C(=O)N[C@@H](CCC(N)=O)C(=O)N[C@@H](CCC(N)=O)C(N)=O)[C@@H](C)CC)[C@@H](C)CC)[C@@H](C)O)[C@@H](C)O)C(C)C)C(C)C [melittin, Melittin] |  |  | significantly increased in M2 macrophages
